SMILES strings stand for the structures. Active and inactive are the calls of the source. No cut-off for these calls is given here.

The species named for the first test is Rattus norvegicus. Put plainly: Effective dose of compound required for in vitro effect on growth hormone release was measured in rat pituitary cell assay; IA means compound is inactive at 20 ug/mL concentration. It is filed as functional. The settings on record: Pituitary gland cell.
With `CC1=NC(NC(=O)CC(C)(C)N)C(=O)N(Cc2ccc(-c3ccccc3-c3nn[nH]n3)cc2)c2ccccc21` (configuration not stated), the ED50 entry is “inactive”.

The species entered for a further test is Rattus norvegicus. Put plainly: Effective dose of compound required for in vitro effect on growth hormone release was measured in rat pituitary cell assay. To be noted: Rattus norvegicus, Pituitary gland cell; read-out: ED50 (the source's name). Type of test: functional, Pituitary gland cell.
In the case of `CC(C)(N)CC(=O)N[C@@H]1COc2ccccc2N(Cc2ccc(-c3ccccc3-c3nn[nH]n3)cc2)C1=O`, the EC50 was found to be 120 nM.

`CC(C)(N)CC(=O)N[C@@H]1CCc2ccccc2N(Cc2ccc(-c3ccccc3-c3nn[nH]n3)cc2)C1=O`: the EC50 came out at 60 nM.

Turning to `CC(C)(N)CC(=O)NC1CCc2ccccc2N(Cc2ccc(-c3ccccc3-c3nn[nH]n3)cc2)C1=O` [L-158432], the EC50 was found to be 120 nM.

On to `CC(C)(N)CC(=O)N[C@@H]1CC(O)c2ccccc2N(Cc2ccc(-c3ccccc3-c3nn[nH]n3)cc2)C1=O` (some centres not stated), for which the EC50 amounted to 4000 nM.

`CC(C)(N)CC(=O)N[C@@H]1CS(=O)(=O)c2ccccc2N(Cc2ccc(-c3ccccc3-c3nn[nH]n3)cc2)C1=O`: the EC50 came out at 1000 nM.

As to `CC(C)(N)CC(=O)NC1Sc2ccccc2N(Cc2ccc(-c3ccccc3-c3nn[nH]n3)cc2)C1=O` (configuration not stated), the EC50 is 500 nM.

Consider `CC(C)(N)CC(=O)N[C@@H]1CC(=O)c2ccccc2N(Cc2ccc(-c3ccccc3-c3nn[nH]n3)cc2)C1=O`, for which the EC50 was 2700 nM.

Regarding `CC(C)(N)CC(=O)NC1Cc2ccccc2N(Cc2ccc(-c3ccccc3-c3nn[nH]n3)cc2)C1=O` (configuration not stated), the EC50 is 2000 nM.

As for `CC(C)(N)CC(=O)N[C@@H]1C[S+]([O-])c2ccccc2N(Cc2ccc(-c3ccccc3-c3nn[nH]n3)cc2)C1=O` (stereo in doubt), the EC50 was found to be 3000 nM.

Take `CC(C)(N)CC(=O)N[C@@H]1CSc2ccccc2N(Cc2ccc(-c3ccccc3-c3nn[nH]n3)cc2)C1=O`: the EC50 was 100 nM.

Staying with this test, now noted: read-out: ED50 (the source's name).
As for `CC(C)(N)CC(=O)N[C@@H]1C[S+]([O-])c2ccccc2N(Cc2ccc(-c3ccccc3-c3nn[nH]n3)cc2)C1=O` (stereo in doubt; 22a), the EC50 amounted to 4000 nM.

Source of the values: ChEMBL document CHEMBL1151011, “Heterocyclic analogs of the benzolactam nucleus of the non-peptidic growth hormone secretagogue L-692,429” (1995).
